Experimental data reported in US9725432B2, “Pyrimidine derivatives for the treatment of bacterial diseases” (JANSSEN R&D IRELAND, priority 2012, dated 2017).
≈ marks a conversion by molar mass, not a printed value.

Assays:
Staphylococcus aureus = assay: MIC determination of compounds on ECO/PAE/STA in microplates; format: cell-based; details: lowest concentration with no growth (90% inhibition of growth), 18-20 hours at 37° C., visual, strain not given

| melting point [°C] | MIC90 (Staphylococcus aureus) [µg/mL] | Compound |
| --- | --- | --- |
| 165 | 0.125 (≈ 0.276 µM) | COc1ccc(-c2ncc(-c3cccc(C#N)c3)c(C3CCN(CC(C)(C)C#N)CC3)n2)cn1 [Compound 85] |
| 180 to 182 | 0.125 (≈ 0.276 µM) | COc1cccc(-c2cnc(-c3ccc(C#N)cc3)nc2C2CCN(CC(F)(F)F)CC2)c1 [Compound 83] |
| 101 to 122 | 2 (≈ 4 µM) | CC(C)(C#N)CN1CCC(c2nc(-c3ccc(S(C)(=O)=O)cc3)ncc2-c2cccc(C#N)c2)CC1 [Compound 87] |
| 155 to 164 | 0.125 (≈ 0.303 µM) | CC(C)(C)CN1CCN(c2nc(-c3ccncc3)ncc2-c2cccc(C#N)c2)CC1 [Compound 74] |
